Assays:
SH-SY5Y [1] = experiment: Cytotoxicity against human SH-SY5Y cells assessed as cell viability at 10 uM after 48 hrs by MTT assay relative to control; assay type: functional; conditions: read-out: Activity
[2] = target: Nicotinamide phosphoribosyltransferase (Homo sapiens, UniProt P43490); experiment: Inhibition of NAMPT in human SH-SY5Y cells assessed as NAD depletion incubated for 16 hrs; assay type: cell-based
SH-SY5Y [3] = experiment: Cytotoxicity against human SH-SY5Y cells assessed as cell viability at 1 uM after 48 hrs by MTT assay relative to control; assay type: functional; conditions: read-out: Activity
[4] = target: Nicotinamide phosphoribosyltransferase (Mus musculus, UniProt Q99KQ4); experiment: Inhibition of recombinant mouse NAMPT expressed in bacteria assessed as reduction in NADH formation using [14C]NAM as substrate measured for 1 hr by coupled enzymatic assay
Sequence of Nicotinamide phosphoribosyltransferase (Mus musculus, UniProt Q99KQ4) (Q99KQ4 whole entry): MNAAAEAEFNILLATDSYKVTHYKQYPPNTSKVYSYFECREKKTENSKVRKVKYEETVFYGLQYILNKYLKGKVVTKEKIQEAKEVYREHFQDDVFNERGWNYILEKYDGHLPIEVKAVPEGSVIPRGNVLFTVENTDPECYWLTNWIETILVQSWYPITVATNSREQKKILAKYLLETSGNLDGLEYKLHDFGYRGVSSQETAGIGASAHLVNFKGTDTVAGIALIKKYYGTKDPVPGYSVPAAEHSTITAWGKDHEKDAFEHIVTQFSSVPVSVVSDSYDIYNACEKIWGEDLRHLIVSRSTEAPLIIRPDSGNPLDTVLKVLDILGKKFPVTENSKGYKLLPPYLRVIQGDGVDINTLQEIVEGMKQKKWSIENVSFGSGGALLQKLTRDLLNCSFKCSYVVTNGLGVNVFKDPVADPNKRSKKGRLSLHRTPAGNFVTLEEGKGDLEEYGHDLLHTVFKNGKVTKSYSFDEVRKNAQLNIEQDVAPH

SH-SY5Y [5] = experiment: Cytotoxicity against human SH-SY5Y cells assessed as reduction in cell viability after 48 hrs by MTT assay; assay type: functional, cell-based
SH-SY5Y [6] = experiment: Cytotoxicity against human SH-SY5Y cells assessed as cell viability at 100 nM after 48 hrs by MTT assay relative to control; assay type: functional; conditions: read-out: Activity

Sequence of Nicotinamide phosphoribosyltransferase (Homo sapiens, UniProt P43490) (P43490 whole entry): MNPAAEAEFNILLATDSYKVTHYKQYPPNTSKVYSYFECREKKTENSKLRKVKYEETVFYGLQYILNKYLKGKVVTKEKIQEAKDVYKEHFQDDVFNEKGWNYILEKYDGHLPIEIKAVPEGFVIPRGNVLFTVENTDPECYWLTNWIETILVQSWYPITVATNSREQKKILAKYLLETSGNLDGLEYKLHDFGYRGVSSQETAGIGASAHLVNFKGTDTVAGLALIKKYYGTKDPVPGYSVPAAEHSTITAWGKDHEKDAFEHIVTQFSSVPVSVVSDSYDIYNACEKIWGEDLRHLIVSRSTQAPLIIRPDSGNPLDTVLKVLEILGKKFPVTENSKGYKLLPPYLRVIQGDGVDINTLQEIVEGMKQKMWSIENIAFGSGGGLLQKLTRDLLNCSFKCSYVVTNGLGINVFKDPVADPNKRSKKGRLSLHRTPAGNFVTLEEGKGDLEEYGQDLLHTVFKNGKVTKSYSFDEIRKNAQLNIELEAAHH

O=C(CCCCCCCc1cn(-c2ccc(N3CCOCC3)cc2)nn1)Nc1ccncc1
viability at 10 µM (SH-SY5Y [1]): 103%

O=C(CCCCCCCc1cn(-c2ccccc2CO)nn1)NCc1cccnc1
viability at 10 µM (SH-SY5Y [1]): 96%

O=C(CCCCCc1cn(Cc2ccc(-c3ccccc3)cc2)nn1)NCCc1ccncc1
viability at 10 µM (SH-SY5Y [1]): 100%

O=C(CCCCCc1cn(-c2ccccc2-c2ccccc2)nn1)NCCc1cccnc1
IC50 [2]: 7.6 nM | viability at 1 µM (SH-SY5Y [3]): 29.2% | viability at 10 µM (SH-SY5Y [1]): 25% | IC50 [4]: 170 nM | EC50 (SH-SY5Y [5]): 680 nM

O=C(CCCCCCCc1cn(-c2ccc(CN3CCOCC3)cc2)nn1)Nc1ccncc1
viability at 10 µM (SH-SY5Y [1]): 125%

O=C(CCCCCCCc1cn(-c2ccccc2Cc2ccccc2)nn1)NCCc1cccnc1
viability at 10 µM (SH-SY5Y [1]): 101%

O=C(CCCCCCc1cn(-c2ccccc2-c2ccccc2)nn1)NCc1cccnc1
viability at 1 µM (SH-SY5Y [3]): 98% | viability at 10 µM (SH-SY5Y [1]): 47%

O=C(CCCCCc1cn(-c2ccccc2-c2ccccc2)nn1)NCc1cccnc1
IC50 [2]: 1.1 nM | viability at 1 µM (SH-SY5Y [3]): 13.4% | viability at 10 µM (SH-SY5Y [1]): 12.5% | IC50 [4]: 267 nM | EC50 (SH-SY5Y [5]): 456 nM

O=C(Cc1cccnc1)NCCCCCc1cn(-c2ccccc2-c2ccccc2)nn1
viability at 1 µM (SH-SY5Y [3]): 99% | viability at 0.1 µM (SH-SY5Y [6]): 106%

O=C(CCCCCCCCc1cn(-c2cnc3ccccc3c2)nn1)Nc1ccncc1
viability at 1 µM (SH-SY5Y [3]): 104% | viability at 10 µM (SH-SY5Y [1]): 53%

O=C(CCCCCCCc1cn(-c2ccccc2Cc2ccccc2)nn1)NCc1cccnc1
viability at 10 µM (SH-SY5Y [1]): 94%

O=C(CCCCCCCc1cn(-c2ccccc2-c2ccccc2)nn1)Nc1ccncc1
viability at 1 µM (SH-SY5Y [3]): 82% | viability at 10 µM (SH-SY5Y [1]): 32%

O=C(/C=C/c1cccnc1)NCCCCCc1cn(-c2ccccc2-c2ccccc2)nn1
IC50 [2]: 0.0509 nM | viability at 1 µM (SH-SY5Y [3]): 32% | viability at 0.1 µM (SH-SY5Y [6]): 49% | IC50 [4]: 114 nM | EC50 (SH-SY5Y [5]): 20 nM

CNCC(=O)N(CCn1cc(CCCCCCCC(=O)NCCc2cccnc2)nn1)Cc1ccccc1
viability at 10 µM (SH-SY5Y [1]): 109%

O=C(CCCCCCCCc1cn(-c2ccc(N3CCOCC3)cc2)nn1)NCc1cccnc1
viability at 1 µM (SH-SY5Y [3]): 100% | viability at 10 µM (SH-SY5Y [1]): 74%

O=C(CCCCCCCc1cn(-c2ccccc2Cc2ccccc2)nn1)NCCc1ccncc1
viability at 10 µM (SH-SY5Y [1]): 99%

O=C(CCCCCCCc1cn(-c2ccccc2-c2ccccc2)nn1)Nc1cccnc1
viability at 10 µM (SH-SY5Y [1]): 111%

O=C(CCCCCCCCc1cn(-c2ccc(N3CCOCC3)cc2)nn1)Nc1ccncc1
viability at 1 µM (SH-SY5Y [3]): 93% | viability at 10 µM (SH-SY5Y [1]): 28%

O=C(CCc1cccnc1)NCCCCCc1cn(-c2ccccc2-c2ccccc2)nn1
viability at 1 µM (SH-SY5Y [3]): 54% | viability at 0.1 µM (SH-SY5Y [6]): 112%

O=C(/C=C/c1cccnc1)NCCCCC1CCN(C(=O)c2ccccc2)CC1 [DAPORINAD]
IC50 [4]: 61 nM | EC50 (SH-SY5Y [5]): 3.2 nM

O=C(CCCCCCCCc1cn(-c2cnc3ccccc3c2)nn1)NCc1cccnc1
viability at 1 µM (SH-SY5Y [3]): 102% | viability at 10 µM (SH-SY5Y [1]): 29%

Reference: ChEMBL document CHEMBL3751665, “Identification of a novel NAMPT inhibitor by combinatorial click chemistry and chemical refinement” (Medchemcomm, 2015)
